According to PubChem BioAssay AID2060505 (Molecular Pharmacology Branch, DTP, NCI, 2025):
pIC50: −log10 of the molar value.

Test system: 633275-114-R-J1-PDC complex spheroids, viability
Assay: Anticancer human tumor 633275-114-R-J1-PDC patient-derived endometrial adenocarcinoma cell line growth inhibition [GQUAD]
Details: for pIC50: curve of first compound; for viability, T/C: stronger effect = lower value; active = viability on the fitted dose curve at most 10% of control; inactive = the rest
Outline: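 Viability of tumor cells grown as complex spheroids with endothelial and stromal cells, exposed to drug combinations. Top concentration at or near clinical Cmax (else 10 microM), diluted in half-log increments.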

[1] = second compound 0.0316 µM, first compound 0.000999 µM
[2] = second compound 0.0316 µM, first compound 0.00316 µM
[3] = second compound 0.0316 µM, first compound 0.00999 µM
[4] = second compound 0.0316 µM, first compound 0.0316 µM
[5] = second compound 0.0316 µM, first compound 0.0999 µM
[6] = second compound 0.0316 µM, first compound 0.316 µM
[7] = second compound 0.1 µM, first compound 0.000999 µM
[8] = second compound 0.1 µM, first compound 0.00316 µM
[9] = second compound 0.1 µM, first compound 0.00999 µM
[10] = second compound 0.1 µM, first compound 0.0316 µM
[11] = second compound 0.1 µM, first compound 0.0999 µM
[12] = second compound 0.1 µM, first compound 0.316 µM
[13] = second compound 0.316 µM, first compound 0.000999 µM
[14] = second compound 0.316 µM, first compound 0.00316 µM
[15] = second compound 0.316 µM, first compound 0.00999 µM
[16] = second compound 0.316 µM, first compound 0.0316 µM
[17] = second compound 0.316 µM, first compound 0.0999 µM
[18] = second compound 0.316 µM, first compound 0.316 µM
[19] = second compound 1 µM, first compound 0.000999 µM
[20] = second compound 1 µM, first compound 0.00316 µM
[21] = second compound 1 µM, first compound 0.00999 µM
[22] = second compound 1 µM, first compound 0.0316 µM
[23] = second compound 1 µM, first compound 0.0999 µM
[24] = second compound 1 µM, first compound 0.316 µM
[25] = second compound 3.16 µM, first compound 0.000999 µM
[26] = second compound 3.16 µM, first compound 0.00316 µM
[27] = second compound 3.16 µM, first compound 0.00999 µM
[28] = second compound 3.16 µM, first compound 0.0316 µM
[29] = second compound 3.16 µM, first compound 0.0999 µM
[30] = second compound 3.16 µM, first compound 0.316 µM
[31] = second compound 10 µM, first compound 0.000999 µM
[32] = second compound 10 µM, first compound 0.00316 µM
[33] = second compound 10 µM, first compound 0.00999 µM
[34] = second compound 10 µM, first compound 0.0316 µM
[35] = second compound 10 µM, first compound 0.0999 µM
[36] = second compound 10 µM, first compound 0.316 µM
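Also: spheroids exposed to the agents for seven days.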
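For viability, T/C in this document: percent of DMSO vehicle control viability which is 100%.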

CCc1c2c(nc3ccc(O)cc13)-c1cc3c(c(=O)n1C2)COC(=O)[C@]3(O)CC + Cc1[nH]c2ccc(F)cc2c1-c1nc2c3cccnc3c3ncccc3c2[nH]1
8.61: pIC50 (second compound 0.0316 µM)
8.85: pIC50 (second compound 10 µM)
8.51: pIC50 (second compound 0.1 µM)
8.57: pIC50 (second compound 0.316 µM)
8.64: pIC50 (second compound 1 µM)
inactive: viability, T/C [1] 69.7% | viability, T/C [2] 42.2% | viability, T/C [3] 36.2% | viability, T/C [4] 31.7% | viability, T/C [5] 30% | viability, T/C [6] 24.7% | viability, T/C [7] 71.1% | viability, T/C [8] 47.1% | viability, T/C [9] 37.2% | viability, T/C [10] 34.3% | viability, T/C [11] 27.3% | viability, T/C [12] 22.3% | viability, T/C [13] 68.8% | viability, T/C [14] 44.2% | viability, T/C [15] 37.5% | viability, T/C [16] 31.4% | viability, T/C [17] 28% | viability, T/C [18] 22.4% | viability, T/C [19] 62.6% | viability, T/C [20] 43.5% | viability, T/C [21] 35.1% | viability, T/C [22] 32.3% | viability, T/C [23] 27.5% | viability, T/C [24] 23.4% | viability, T/C [25] 57.5% | viability, T/C [26] 38.9% | viability, T/C [27] 33.2% | viability, T/C [28] 30.8% | viability, T/C [29] 27.6% | viability, T/C [30] 25.8% | viability, T/C [31] 55.2% | viability, T/C [32] 37.7% | viability, T/C [33] 33% | viability, T/C [34] 29.5% | viability, T/C [35] 24.8% | viability, T/C [36] 23.7%
8.79: pIC50 (second compound 3.16 µM)

CC[C@@]1(O)C(=O)OCc2c1cc1n(c2=O)Cc2cc3c(CN(C)C)c(O)ccc3nc2-1 + Cc1[nH]c2ccc(F)cc2c1-c1nc2c3cccnc3c3ncccc3c2[nH]1
7.13: pIC50 (second compound 0.316 µM)
inactive: viability, T/C [1] 98.6% | viability, T/C [2] 91.9% | viability, T/C [3] 86.8% | viability, T/C [4] 69.6% | viability, T/C [5] 43.9% | viability, T/C [6] 36.9% | viability, T/C [7] 93.8% | viability, T/C [8] 93.6% | viability, T/C [9] 87.7% | viability, T/C [10] 73.4% | viability, T/C [11] 45.3% | viability, T/C [12] 35.8% | viability, T/C [13] 94% | viability, T/C [14] 99.1% | viability, T/C [15] 88.2% | viability, T/C [16] 71.2% | viability, T/C [17] 41.8% | viability, T/C [18] 36.5% | viability, T/C [19] 90.4% | viability, T/C [20] 91.8% | viability, T/C [21] 79.3% | viability, T/C [22] 68% | viability, T/C [23] 41.9% | viability, T/C [24] 36.3% | viability, T/C [25] 71.7% | viability, T/C [26] 70.4% | viability, T/C [27] 69.1% | viability, T/C [28] 56.5% | viability, T/C [29] 37.1% | viability, T/C [30] 33.2% | viability, T/C [31] 66.5% | viability, T/C [32] 74.4% | viability, T/C [33] 71% | viability, T/C [34] 54.6% | viability, T/C [35] 36.5% | viability, T/C [36] 29.7%
7.33: pIC50 (second compound 3.16 µM)
7.08: pIC50 (second compound 0.1 µM)
7.10: pIC50 (second compound 0.0316 µM)
7.36: pIC50 (second compound 10 µM)
7.14: pIC50 (second compound 1 µM)

Cc1[nH]c2ccccc2c1CCNCc1ccc(/C=C/C(=O)NO)cc1 + Cc1[nH]c2ccc(F)cc2c1-c1nc2c3cccnc3c3ncccc3c2[nH]1
7.18: pIC50 (second compound 0.316 µM)
7.08: pIC50 (second compound 0.1 µM)
7.68: pIC50 (second compound 3.16 µM)
7.26: pIC50 (second compound 1 µM)
7.20: pIC50 (second compound 0.0316 µM)
7.79: pIC50 (second compound 10 µM)
inactive: viability, T/C [1] 103% | viability, T/C [2] 85.6% | viability, T/C [3] 79.1% | viability, T/C [4] 64.2% | viability, T/C [5] 41.4% | viability, T/C [6] 19.3% | viability, T/C [7] 90.6% | viability, T/C [8] 90.4% | viability, T/C [9] 81.6% | viability, T/C [10] 70.5% | viability, T/C [11] 46.1% | viability, T/C [12] 17.3% | viability, T/C [13] 94% | viability, T/C [14] 94% | viability, T/C [15] 71.2% | viability, T/C [16] 62.3% | viability, T/C [17] 44.8% | viability, T/C [18] 19.7% | viability, T/C [19] 87.6% | viability, T/C [20] 78.7% | viability, T/C [21] 71.7% | viability, T/C [22] 57.2% | viability, T/C [23] 41.9% | viability, T/C [24] 21.2% | viability, T/C [25] 69.8% | viability, T/C [26] 64.9% | viability, T/C [27] 53.6% | viability, T/C [28] 45.1% | viability, T/C [29] 41.3% | viability, T/C [30] 21.7% | viability, T/C [31] 62% | viability, T/C [32] 65.4% | viability, T/C [33] 48.7% | viability, T/C [34] 45.5% | viability, T/C [35] 36.4% | viability, T/C [36] 20.8%

Nc1ccn(C2OC(CO)C(O)C2(F)F)c(=O)n1 (stereo not drawn) + Cc1cnc(CNC(=O)c2c(=O)c3ccc(N4CCCN(C)CC4)nc3n3c2sc2ccccc23)cn1
inactive: viability, T/C [4] 26.8% | viability, T/C (second compound 0.0316 µM, first compound 0.1 µM) 22.2% | viability, T/C [6] 21.5% | viability, T/C (second compound 0.0316 µM, first compound 1 µM) 21.3% | viability, T/C (second compound 0.0316 µM, first compound 3.16 µM) 20.6% | viability, T/C (second compound 0.0316 µM, first compound 10 µM) 19.9% | viability, T/C [10] 27.8% | viability, T/C (second compound 0.1 µM, first compound 0.1 µM) 23.1% | viability, T/C [12] 22.4% | viability, T/C (second compound 0.1 µM, first compound 1 µM) 19.9% | viability, T/C (second compound 0.1 µM, first compound 3.16 µM) 24.2% | viability, T/C (second compound 0.1 µM, first compound 10 µM) 19.5% | viability, T/C [16] 24.7% | viability, T/C (second compound 0.316 µM, first compound 0.1 µM) 25.8% | viability, T/C [18] 22.4% | viability, T/C (second compound 0.316 µM, first compound 1 µM) 22.9% | viability, T/C (second compound 0.316 µM, first compound 3.16 µM) 21.9% | viability, T/C (second compound 0.316 µM, first compound 10 µM) 19.5% | viability, T/C [22] 25.5% | viability, T/C (second compound 1 µM, first compound 0.1 µM) 23.8% | viability, T/C [24] 22.7% | viability, T/C (second compound 1 µM, first compound 1 µM) 24% | viability, T/C (second compound 1 µM, first compound 3.16 µM) 23% | viability, T/C (second compound 1 µM, first compound 10 µM) 19.4% | viability, T/C [28] 25.7% | viability, T/C (second compound 3.16 µM, first compound 0.1 µM) 23.6% | viability, T/C [30] 21.7% | viability, T/C (second compound 3.16 µM, first compound 1 µM) 22% | viability, T/C (second compound 3.16 µM, first compound 3.16 µM) 21.5% | viability, T/C (second compound 3.16 µM, first compound 10 µM) 20.9% | viability, T/C [34] 26.6% | viability, T/C (second compound 10 µM, first compound 0.1 µM) 22.3% | viability, T/C [36] 22.6% | viability, T/C (second compound 10 µM, first compound 1 µM) 23.3% | viability, T/C (second compound 10 µM, first compound 3.16 µM) 20.7% | viability, T/C (second compound 10 µM, first compound 10 µM) 17.9%
> 7.50: pIC50 (second compound 0.0316 µM) | pIC50 (second compound 0.1 µM) | pIC50 (second compound 0.316 µM) | pIC50 (second compound 1 µM) | pIC50 (second compound 3.16 µM) | pIC50 (second compound 10 µM)
